{
  "source": "patent US11525008B2",
  "about": "“Methods and pharmaceutical compositions for the treatment of lung cancer” (INSERM (INSTITUT NATIONAL DE LA SANTÉ ET DE LA RECHERCHE …, priority 2016, dated 2022)",
  "assay_type_in_all_cases": "cell-based",
  "key": {"A549 cell line": {"test_system": "A549 cell line", "assay": "matrigel modified Boyden chamber cell invasion assay after FHIT silencing", "settings": "irbinitinib 10 nM; A549 cells transfected with FHIT siRNA; FIG. 3B", "excerpt": "(§1) FIG. 3: Cell invasion induced by FHIT silencing is HER2-dependent."}, "HBE-4-E6/E7 cell line": {"test_system": "HBE-4-E6/E7 cell line", "assay": "matrigel modified Boyden chamber cell invasion assay after FHIT silencing", "settings": "irbinitinib 10 nM; HBE-4-E6/E7 cells transfected with FHIT siRNA; FIG. 3A", "excerpt": "as §1"}, "A549 spheroids": {"test_system": "A549 spheroids", "assay": "collagen I gel invasion by spheroids, timelapse videomicroscopy, after FHIT silencing", "settings": "irbinitinib 15 nM, FHIT siRNA, up to 72h, vs FHIT siRNA+DMSO p=0.0001, FIG. 4", "method": "FIG. 4: Collagen I gel invasion by A549 spheroids induced by FHIT silencing is HER2-dependent. […] A. Representative phase-contrast images of spheroids at T0 and T=72h. B. Time course analysis of mean diameter of spheroids.** p<0.01; *** p<0.001."}},
  "data": [
    {"smiles": "Cc1cc(Nc2ncnc3ccc(NC4=NC(C)(C)CO4)cc23)ccc1Oc1ccn2ncnc2c1", "note": "[irbinitinib, N4-(4-([1,2,4]Triazolo[1,5-a]pyridin-7-yloxy)-3-methylphenyl)-N6-(4,4-dimethyl-4,5-dihydrooxazol-2-yl)quinazoline-4,6-diamine]", "values": [
      {"measurement": "cell invasion induced by FHIT silencing", "setting": "A549 cell line", "result": "reduces cell invasion"},
      {"measurement": "cell invasion induced by FHIT silencing", "setting": "HBE-4-E6/E7 cell line", "result": "reduces cell invasion"},
      {"measurement": "spheroid invasion (tumor cell dispersion into collagen I matrix, mean spheroid diameter) induced by FHIT silencing", "setting": "A549 spheroids", "result": "reduces spheroid invasion"}
    ]}
  ]
}
